# Source: US9802891B2, “Crystal forms of azetidinone compounds and preparing methods thereof” (Zhejiang Hisun Pharmaceutical Co., Ltd., priority 2012, dated 2017)
# What was measured:
# Long term stability test = format: physicochemical; settings: 25° C.±2° C., relative humidity 60%±10%; for Content of C25H21F2NO3, based on anhydride: shall be no less than 97.0%; for Relevant substances: Single maximum unknown foreign matter: shall not exceed 0.3%; for Relevant substances: Total foreign matter: shall not exceed 1.5%; for Moisture: shall not exceed 2.0%
# Procedure: In accordance with the stability test guiding principles (Chinese Pharmacopoeia 2010 Edition 2—Annex XIX C), prepare the samples of the crystal form I of the compound of formula A described in embodiment 6 in a commercial package, place the samples in a thermotank at the temperature of 25° C.±2° C. with the relative humidity of 60%±10%, take each sample from the samples once at the ends of the third month, the sixth month and the ninth month respectively to detect the key stability inspection items of each sample and compare with the result of the sample at the zero day, wherein see Table 3 for the comparisons.
# [1] = Accelerated stability test; format: physicochemical; settings: 40° C.±2° C., relative humidity 75%±5%; for Melting point / Content of C25H21F2NO3, based on anhydride / Relevant substances: Single maximum unknown foreign matter / Relevant substances: Total foreign matter / Moisture / Relevant substances: Diastereomer: commercial package; for Melting point: limit 149-153° C.; for Content of C25H21F2NO3, based on anhydride: shall be no less than 97.0%; for Relevant substances: Single maximum unknown foreign matter: shall not exceed 0.3%; for Relevant substances: Total foreign matter: shall not exceed 1.5%; for Moisture: shall not exceed 2.0%; for Relevant substances: Diastereomer: shall not exceed 1.0%
# Procedure: In accordance with the stability test guiding principles (Chinese Pharmacopoeia 2010 Edition 2—Annex XIX C), prepare the sample of the crystal form I of the compound of formula A described in embodiment 6 in a commercial package, place the samples in a thermotank at the temperature of 40° C.±2° C. with the relative humidity of 75%±5%, with the duration of 6 months, take each sample once at the ends of the first month, the second month, the third month and the sixth month respectively to detect the key stability inspection items and compare with the results of the sample at the zero day, wherein see Table 4 for the comparisons.
# [2] = commercial package, month 9, shall not exceed 0.5%
smiles,measurement,setting,value
"O=C1[C@H](C/C=C(\CO)c2ccc(F)cc2)[C@@H](c2ccc(O)cc2)N1c1ccc(F)cc1 [crystal form I, (3R,4S)-4-(4-hydroxyphenyl)-3-[3-(4-fluorophenyl)-4-hydroxybut-2(Z)-enyl]-1-(4-fluorophenyl)-2-azetidinone]","Content of C25H21F2NO3, based on anhydride","Long term stability test; commercial package, month 0",98.74%
same,Relevant substances: Single maximum unknown foreign matter,"Long term stability test; commercial package, month 0",0.097%
same,Relevant substances: Total foreign matter,"Long term stability test; commercial package, month 0",0.342%
same,Moisture,"Long term stability test; commercial package, month 0",0.23%
same,"Content of C25H21F2NO3, based on anhydride","Long term stability test; commercial package, month 3",98.99%
same,Relevant substances: Single maximum unknown foreign matter,"Long term stability test; commercial package, month 3",0.1013%
same,Relevant substances: Total foreign matter,"Long term stability test; commercial package, month 3",0.3488%
same,Moisture,"Long term stability test; commercial package, month 3",0.41%
same,"Content of C25H21F2NO3, based on anhydride","Long term stability test; commercial package, month 6",98.83%
same,Relevant substances: Single maximum unknown foreign matter,"Long term stability test; commercial package, month 6",0.0956%
same,Relevant substances: Total foreign matter,"Long term stability test; commercial package, month 6",0.3551%
same,Moisture,"Long term stability test; commercial package, month 6",0.56%
same,"Content of C25H21F2NO3, based on anhydride","Long term stability test; commercial package, month 9",98.91%
same,Relevant substances: Single maximum unknown foreign matter,"Long term stability test; commercial package, month 9",0.0940%
same,Isomer: E-isomer,Long term stability test; [2],0.0161%
same,Isomer: Enantiomer,Long term stability test; [2],0.0587%
same,Relevant substances: Total foreign matter,"Long term stability test; commercial package, month 9",0.3581%
same,Moisture,"Long term stability test; commercial package, month 9",0.32%
same,"Long term stability, conclusion on inspection indexes",Long term stability test; nine month,various inspection indexes of the samples do not change apparently and all meet the specifications
same,Melting point,[1]; month 0,149.8-152.1 °C
same,"Content of C25H21F2NO3, based on anhydride",[1]; month 0,98.71%
same,Relevant substances: Single maximum unknown foreign matter,[1]; month 0,0.097%
same,Relevant substances: Total foreign matter,[1]; month 0,0.342%
same,Moisture,[1]; month 0,0.20%
same,Melting point,[1]; month 1,149.3-151.5 °C
same,"Content of C25H21F2NO3, based on anhydride",[1]; month 1,99.11%
same,Relevant substances: Single maximum unknown foreign matter,[1]; month 1,0.1004%
same,Relevant substances: Diastereomer,[1]; month 1,0.0128%
same,Relevant substances: Total foreign matter,[1]; month 1,0.3757%
same,Moisture,[1]; month 1,0.30%
same,Melting point,[1]; month 2,149.7-152.1 °C
same,"Content of C25H21F2NO3, based on anhydride",[1]; month 2,98.82%
same,Relevant substances: Single maximum unknown foreign matter,[1]; month 2,0.0856%
same,Relevant substances: Diastereomer,[1]; month 2,Not detected
same,Relevant substances: Total foreign matter,[1]; month 2,0.3650%
same,Moisture,[1]; month 2,0.28%
same,Melting point,[1]; month 3,149.7-152.1 °C
same,"Content of C25H21F2NO3, based on anhydride",[1]; month 3,98.78%
same,Relevant substances: Single maximum unknown foreign matter,[1]; month 3,0.0983%
same,Relevant substances: Diastereomer,[1]; month 3,Not detected
same,Relevant substances: Total foreign matter,[1]; month 3,0.3717%
same,Moisture,[1]; month 3,0.37%
same,Melting point,[1]; month 6,149.5-151.9 °C
same,"Content of C25H21F2NO3, based on anhydride",[1]; month 6,97.97%
same,Relevant substances: Single maximum unknown foreign matter,[1]; month 6,0.2017%
same,Relevant substances: Diastereomer,[1]; month 6,Not detected
same,Relevant substances: Total foreign matter,[1]; month 6,1.0828%
same,Moisture,[1]; month 6,0.44%
same,"Accelerated stability, conclusion on inspection indexes",[1]; 6 months,"the relevant substances are grown significantly in the sixth month and the content is reduced at a certain level; however, both of the two are within the acceptable range"
